Literature values as cited in patent publication US20170335399A1, “DETECTION OF MINERALOCORTICOID RECEPTOR ACTIVATION AND PERSONALIZED ANTIHYPERTENSIVE THERAPY BASED THEREON” (The Regents of University of Michigan, priority 2014, published 2017).

Columns and labels:
[1] = target: T1, mineralocorticoid receptor (MR) (Homo sapiens, UniProt P08235); conditions: resistant hypertension patients; ASPIRANT trial; placebo-corrected mean
T1 construct: host or cells: patients with resistant hypertension (in vivo)
T1 sequence (P08235 1-984): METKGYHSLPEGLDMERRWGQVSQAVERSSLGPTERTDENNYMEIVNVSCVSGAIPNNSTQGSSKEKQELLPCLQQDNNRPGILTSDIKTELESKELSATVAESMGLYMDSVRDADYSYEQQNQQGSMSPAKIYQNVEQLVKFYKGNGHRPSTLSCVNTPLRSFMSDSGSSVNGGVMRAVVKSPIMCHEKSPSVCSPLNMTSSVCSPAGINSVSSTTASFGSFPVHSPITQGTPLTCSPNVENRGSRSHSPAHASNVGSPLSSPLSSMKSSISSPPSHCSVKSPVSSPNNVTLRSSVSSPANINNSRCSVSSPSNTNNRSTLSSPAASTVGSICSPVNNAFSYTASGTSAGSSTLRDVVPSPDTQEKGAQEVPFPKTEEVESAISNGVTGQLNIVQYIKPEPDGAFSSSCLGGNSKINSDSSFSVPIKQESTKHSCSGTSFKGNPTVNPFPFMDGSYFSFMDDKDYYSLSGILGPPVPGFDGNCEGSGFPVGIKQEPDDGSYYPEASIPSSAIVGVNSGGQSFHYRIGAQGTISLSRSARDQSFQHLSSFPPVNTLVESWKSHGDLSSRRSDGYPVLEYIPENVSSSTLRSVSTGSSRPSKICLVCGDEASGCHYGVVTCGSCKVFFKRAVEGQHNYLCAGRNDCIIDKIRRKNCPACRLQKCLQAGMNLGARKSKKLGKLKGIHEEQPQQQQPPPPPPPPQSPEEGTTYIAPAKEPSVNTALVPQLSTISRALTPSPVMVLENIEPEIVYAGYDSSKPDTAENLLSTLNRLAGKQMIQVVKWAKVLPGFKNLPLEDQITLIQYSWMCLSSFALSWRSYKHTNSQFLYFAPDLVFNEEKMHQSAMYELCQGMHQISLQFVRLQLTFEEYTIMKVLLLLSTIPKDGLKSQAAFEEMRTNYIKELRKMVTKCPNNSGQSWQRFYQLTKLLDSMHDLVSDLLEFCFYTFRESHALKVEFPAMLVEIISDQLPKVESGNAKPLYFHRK

[2] = target: T1, mineralocorticoid receptor (MR); conditions: resistant hypertension; after addition of spironolactone; other studies
ENaC = conditions: patients treated with spironolactone

In the case of `CC(=O)S[C@@H]1CC2=CC(=O)CC[C@]2(C)[C@H]2CC[C@@]3(C)[C@@H](CC[C@@]34CCC(=O)O4)[C@H]12` [spironolactone], the “mean reduction of 24-hour systolic blood pressure more than placebo” value [1] is given as 9.8 mm Hg, the “mean reductions in systolic blood pressure” value [2] is given as 16-26 mm Hg and the “ENaC expression on peripheral blood mononuclear cells” value (ENaC) is given as “decreased”.
